From patent publication US20230364032A1, “USE OF 2-HOBA TO TREAT ATHEROSCLEROSIS” (Vanderbilt University, priority 2020, published 2023)
“Also recorded” adds a separate entry of the source.

Tests used:
[1] = test system: IL-1β, IL-6, TNF-α, SAA; assay: Plasma/serum inflammatory cytokines by ELISA; format: in vivo, mouse
Method: The inflammatory cytokines including IL-1β (5A), IL-6 (5B), TNF-α (5C) and SAA (5D) were measured by ELISA in plasma from mice consuming a western diet for 16 weeks and treated with 2-HOBA, 4-HOBA, or vehicle. N=8 per group.*p<0.05, **p<0.01. ***p<0.001. One-way ANOVA with Bonferroni's post hoc test.
Serum IL-1β, IL-6 and TNF-α levels were measured by ELISA (R&D System). N=7 or 8 mice per group, N.S., One-way ANOVA with Bonferroni's post hoc test.

[2] = test system: cyclooxygenase (COX); assay: Urinary prostaglandin metabolites (LC/MS); format: in vivo, mouse
Method: The urine samples were collected in metabolic cages with 2 mice per cage after 12 weeks of treatment with 2-HOBA or water. The contents of PGE-M (20A), tetranor PGD-M (20B), 2,3-dinor-6-keto-PGF1 (20C) and 11-dehydro TxB2 (20D) were analyzed by LC/MS/MS. (20A-20D) Mean±SEM shown for each, N.S., Mann-Whitney Test.
Concentrations of PGE-M, tetranor PGD-M, 11-dehydro-TxB^2 (TxB-M) and PGI-M in urine were measured in the Eicosanoid Core Laboratory at Vanderbilt University Medical Center. Urine (1 mL) was acidified to pH 3 with HCl. [^2H4]-2,3-dinor-6-keto-PGF1a (internal standard for PGI-M quantification) and [^2H4]-11-dehydro-TxB2 were added, and the sample was treated with methyloxime HCl to convert analytes to the O-methyloxime derivative. The derivatized analytes were extracted using a C-18 Sep-Pak (Waters Corp. Milford, MA USA) and eluted with ethyl acetate as previously described^68. A [^2H6]—O-methyloxime PGE-M deuterated internal standard was then added for PGE-M and PGD-M quantification. The sample was dried under a stream of dry nitrogen at 37° C. and then reconstituted in 75 μL mobile phase A for LC/MS analysis.
LC was performed on a 2.0×50 mm, 1.7 μm particle Acquity BEH C18 column (Waters Corporation, Milford, MA, USA) using a Waters Acquity UPLC. […]
Urinary creatinine levels are measured using a test kit from Enzo Life Sciences. […]

[3] = 2-HOBA and 4-HOBA levels in plasma and tissues of C57BL/6J mice after intraperitoneal injection (LC/MS); format: in vivo, mouse; conditions: for liver, spleen, and kidney levels of 2-HOBA versus 4-HOBA: 30 min after intraperitoneal injection
Method: FIG. 12A-12D show the levels of 2-HOBA or 4-HOBA in plasma and tissues from C57BL/6J mice. A. Plasma samples were collected from female C57BL/6J mice on a chow diet after intraperitoneal injection of 1 mg 2-HOBA (n=3) or 1 mg 4-HOBA (n=3). *p<0.01, Student t test. B-D. Levels of 2-HOBA and 4-HOBA in liver (B), spleen (C), and kidney (D) of WT mice 30 min after intraperitoneal injection. (Mean±SEM shown for each, N.S. Student t test). The levels of 2-HOBA or 4-HOBA were measured in the plasma and tissues using LC/MS as described in the Methods.
Measurement of 2-HOBA and 4-HOBA was performed by LC/MS after derivatization with phenylisothiocyanate (PITC), and using [^2H4]-2-HOBA as an internal standard as previously described for 2-HOBA^71 (See FIG. 23). For these assays, the Waters Xevo-TQ-Smicro triple quadrupole mass spectrometer operating in positive ion multiple reaction monitoring (MRM) mode monitored the following transitions: for PITC-2-HOBA or PITC-4-HOBA, m/z 259→107@20 eV (quantifier transition) and m/z 259→153 @20 eV (qualifier transition); for PITC-[^2H4]2-HOBA m/z 263 →107@20 eV (quantifier transition), m/z 263→111 @20 eV (qualifier transition). Abundance for PITC-2-HOBA was calculated based on the ratio of peak area versus that of PITC-[^2H4]2-HOBA. Because the transition reactions for PITC-4-HOBA are less efficient than for PITC-2-HOBA, the ratio of peak areas for PITC-4-HOBA/PITC-[^2l H4]2-HOBA was multiplied by the correction factors 3.9 and 5.7 when using the m/z 107 and m/z 153 transition, respectively (See FIG. 24).

[4] = previous in vitro studies; cited from earlier work

Row | SMILES | cytokine levels (IL-1β, IL-6, TNF-α) ([1]; Ldlr−/− mice on chow diet, 1 g/L) | serum levels of IL-1β, IL-6, TNF-α, and serum amyloid A ([1]; Ldlr−/− mice, western diet 16 weeks, versus 4-HOBA or vehicle) | levels of major urinary prostaglandin metabolites (2,3-dinor-6-keto-PGF1, 11-dehydro TxB2, PGE-M, PGD-M) ([2]; Ldlr−/− mice, compared to the vehicle control) | inhibition of COX in vivo ([2]; mice) | liver, spleen, and kidney levels of 2-HOBA versus 4-HOBA [3] | reactivity with lipid dicarbonyls / dicarbonyl scavenging [4] | clearance, 4-HOBA vs 2-HOBA ([3]; after intraperitoneal injection) | plasma levels after intraperitoneal injection, 4-HOBA vs 2-HOBA ([3]; female C57BL/6J mice, 1 mg i.p.)
1 | NCc1ccccc1O [2-HOBA, 2-hydroxybenzylamine] | no impact | decreased; also recorded: reduces | no significant differences; also recorded: did not impact | not significantly inhibiting COX | not significantly different | rapidly reacts | – | –
2 | NCc1ccc(O)cc1 [4-HOBA, 4-hydroxybenzylamine, reference compound] | – | – | – | – | not significantly different | poor reactivity; also recorded: ineffective | more rapid clearance; also recorded: cleared more rapidly | slightly higher initially
